Consider four compounds from ChEMBL document CHEMBL1165876, “Novel bis-phenanthridine derivatives with easily tunable linkers, study of their interactions with DNA and screening of antiproliferative activity” (Eur J Med Chem, 2010).

A short description of data set [1]: Solubility in water. It is filed as physicochemical.
Data set [2] has as its system Calf thymus DNA. The data set is described as follows: Binding affinity to calf thymus DNA assessed as change in melting temperature in citric acid/NaOH buffer ayt pH 5 at [compound]/[DNA] ratio of 0.1 by tangent method. The class given is nucleic-acid assay. The settings on record: Bos taurus.
In data set [3] the test system is Calf thymus DNA. The data set is described as follows: Binding affinity to calf thymus DNA assessed as change in melting temperature in citric acid/NaOH buffer ayt pH 5 at [compound]/[DNA] ratio of 0.2 by tangent method. The class given is nucleic-acid assay. Conditions: Bos taurus.
Data set [4] concerns Calf thymus DNA. As to the kind of experiment: Binding affinity to calf thymus DNA assessed as change in melting temperature in citric acid/NaOH buffer ayt pH 5 at [compound]/[DNA] ratio of 0.3 by tangent method. The class given is nucleic-acid assay. Conditions: Bos taurus.
Data set [5] has as its system HeLa. The data set is described as follows: Cytotoxicity against human HeLa cells after 72 hrs by MTT assay. The class given is functional, cell-based.
Data set [6] relates to MIA PaCa-2. The data set is described as follows: Cytotoxicity against human MIAPaCa2 cells after 72 hrs by MTT assay. It is filed as functional, cell-based. The settings on record: MIA PaCa-2, 72 h.
The test system of data set [7] is SW-620. The data set is described as follows: Cytotoxicity against human SW620 cells after 72 hrs by MTT assay. It is filed as functional, cell-based. Conditions: SW-620, 72 h.
Data set [8] has as its system MCF7. As to the kind of experiment: Cytotoxicity against human MCF7 cells after 72 hrs by MTT assay. It is filed as functional, cell-based. Conditions: MCF7, 72 h.
Data set [9] deals with NCI-H460. The data set is described as follows: Cytotoxicity against human H460 cells after 72 hrs by MTT assay. It is filed as functional, cell-based. Conditions: NCI-H460, 72 h.
For data set [10], the system named is Calf thymus DNA. The data set is described as follows: Binding affinity to calf thymus DNA assessed as fluorescence quenching at pH 7 by fluorimetric titration. It is filed as nucleic-acid assay. Conditions: Bos taurus.
For data set [11], the system named is Calf thymus DNA. The data set is described as follows: Binding affinity to calf thymus DNA assessed as fluorescence quenching at pH 5 by fluorimetric titration. The class given is nucleic-acid assay. Conditions: Bos taurus.

pIC50: −log10 of the molar value. Converted amounts (≈) assume the structure as drawn.

By solubility is commonly meant the dissolved amount per volume that the medium holds. Higher therefore signals a readily soluble substance. By ΔTm is commonly meant the change in melting temperature against a reference sample. As a reminder, the pIC50 is the IC50 on a negative log10 scale, so that one unit is a factor of ten. High values mean a small IC50, low ones a large IC50. Compound `Cc1nc2ccccc2c2ccc(C[C@H](NC(=O)CNC(=O)[C@@H](N)Cc3ccc4c(c3)c(C)nc3ccccc34)C(=O)O)cc12` had a solubility in data set [1] of 1000 µM (≈ 600 µg/mL). Besides, the shift in melting temperature (ΔTm) came out at 14.3 °C in [2], 16.5 °C in data set [3] and 18.4 °C in data set [4]. For the same compound, the pIC50 in data set [5], in [6], in data set [7], in [8] and in data set [9] was below 4.00 throughout.

`Cc1nc2ccccc2c2ccc(C[C@H](N)C(=O)O)cc12` registered a solubility in data set [1] of 1000 µM (≈ 280 µg/mL). In data set [4], the ΔTm worked out at 4 °C. The pIC50 in [5], in data set [6], in data set [7], in [8] and in [9] was below 4.00 throughout.

With `Cc1nc2ccccc2c2ccc(C[C@H](NC(=O)CN)C(=O)O)cc12`, the concentration in solution in data set [1] (solubility) came to 1000 µM (≈ 337 µg/mL). Further, the figures for the log Ks in data set [10] and in data set [11] were 4.7 and 5.5, respectively. In addition, the ΔTm in data set [2] was found to be 6.5 °C; in data set [3], 8.1 °C; in data set [4], 11.1 °C.

In [1], `Cc1nc2ccccc2c2ccc(C[C@H](NC(=O)[C@@H](N)Cc3ccc4c(c3)c(C)nc3ccccc34)C(=O)O)cc12` registered a solubility of 1000 µM (≈ 543 µg/mL). In [11], the log Ks was determined as 6.7. In addition, the ΔTm is 8.6 °C in data set [2], 11 °C in data set [3] and 11.3 °C in data set [4].
